{"source": "patent US9115147B2", "about": "“Tricyclic derivatives and their pharmaceutical use and compositions” (Cephalon, Inc., priority 2009, dated 2015)", "note": "pKi: −log10 of the molar value.", "data": [{"target": "T1, human 5-HT6 receptor (Homo sapiens, UniProt P50406)", "T1 construct": "host or cells: CHO-K1 cells, stably transfected; membranes prepared in house", "T1 sequence (P50406 whole entry)": "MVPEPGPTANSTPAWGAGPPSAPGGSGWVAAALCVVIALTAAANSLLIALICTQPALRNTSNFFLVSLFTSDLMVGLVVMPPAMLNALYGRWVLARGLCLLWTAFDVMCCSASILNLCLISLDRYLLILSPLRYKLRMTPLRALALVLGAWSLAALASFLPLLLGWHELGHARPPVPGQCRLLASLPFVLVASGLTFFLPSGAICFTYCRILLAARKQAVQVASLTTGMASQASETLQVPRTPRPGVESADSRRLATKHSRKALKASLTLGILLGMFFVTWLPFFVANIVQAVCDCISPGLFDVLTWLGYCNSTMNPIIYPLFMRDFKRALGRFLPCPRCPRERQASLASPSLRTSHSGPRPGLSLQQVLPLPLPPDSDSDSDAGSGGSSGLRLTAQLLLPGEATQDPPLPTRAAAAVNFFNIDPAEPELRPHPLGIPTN", "assay": "Human 5-HT6 Receptor Binding Assay ([3H]LSD, scintillation beads)", "details": "Human 5-HT6 Ki app (nM), membranes of CHO-K1 cells with recombinant human 5-HT6 receptor, 4 nM [3H]LSD, Cheng-Prusoff", "method_in_brief": "(§1)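 Membranes from CHO-K1 cells stably expressing human 5-HT6, 1.75 μg protein/well with scintillation beads, in 50 mM Tris pH 7.4, 4 mM CaCl2, saponin, ascorbic acid. Nonspecific binding with 10 μM serotonin. IC50 from variable-slope fit; Ki by Cheng-Prusoff.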", "units": {"Ki": "nM"}, "values": [{"compound": "COc1cncc(S(=O)(=O)c2ccc3c(c2)OCC2NCCC32)c1", "note": "(single isomer, unassigned) [Example 35, 7-[(5-methoxypyridin-3-yl)sulfonyl]-1,2,3,3a,4,9b-hexahydrochromeno[3,4-b]pyrrole]", "Ki": "> 1000"}]}, {"target": "T1, human 5-HT6 receptor", "assay": "Human 5-HT6 Receptor Binding Assay ([3H]LSD, scintillation beads)", "details": "actual data; membranes of CHO-K1 cells with recombinant human 5-HT6 receptor, 4 nM [3H]LSD; read-out: Human 5-HT6 Ki", "method_in_brief": "as §1", "values": [{"compound": "O=S(=O)(c1ccccc1)c1ccc2c(c1)OCC1NCCC21", "note": "(racemic) [Example 104, 7-(phenylsulfonyl)-1,2,3,3a,4,9b-hexahydrochromeno[3,4-b]pyrrole]", "pKi": 8.60}, {"compound": "O=S(=O)(c1ccccc1)c1ccc2c(c1)OCC1C2CCN1CCO", "note": "(single isomer, unassigned) [Example 97, 2-[7-(phenylsulfonyl)-1,3a,4,9b-tetrahydrochromeno[3,4-b]pyrrol-3(2H)-yl]ethanol]", "pKi": 6.66}]}, {"target": "T1, human 5-HT6 receptor", "assay": "Human 5-HT6 Receptor Binding Assay ([3H]LSD, scintillation beads)", "details": "membranes of CHO-K1 cells with recombinant human 5-HT6 receptor, 4 nM [3H]LSD, Cheng-Prusoff; read-out: Human 5-HT6 Ki app", "method_in_brief": "as §1", "values": [{"compound": "O=S(=O)(c1ccccc1)c1ccc2c(c1)OCC1NCCC21", "note": "(racemic) [Example 104, 7-(phenylsulfonyl)-1,2,3,3a,4,9b-hexahydrochromeno[3,4-b]pyrrole]", "pKi": "> 6.30"}, {"compound": "CC(C)Oc1cc(F)cc(S(=O)(=O)c2ccc3c(c2)OCC2NCCC32)c1", "note": "(single isomer, unassigned) [Example 108, 7-{[3-fluoro-5-(propan-2-yloxy)phenyl]sulfonyl}-1,2,3,3a,4,9b-hexahydrochromeno[3,4-b]pyrrole]", "pKi": "> 6.30"}, {"compound": "COCCN1CCC2c3ccc(S(=O)(=O)c4ccccc4)cc3OCC21", "note": "(single isomer, unassigned) [Example 99, 3-(2-methoxyethyl)-7-(phenylsulfonyl)-1,2,3,3a,4,9b-hexahydrochromeno[3,4-b]pyrrole]", "pKi": "< 6.00"}, {"compound": "CCOc1cc(F)cc(S(=O)(=O)c2ccc3c(c2)OCC2NCCC32)c1", "note": "(single isomer, unassigned) [Example 40, 7-[(3-ethoxy-5-fluorophenyl)sulfonyl]-1,2,3,3a,4,9b-hexahydrochromeno[3,4-b]pyrrole]", "pKi": "> 6.30"}, {"compound": "COc1cncc(S(=O)(=O)c2ccc3c(c2)OCC2C3CCN2C2CCC2)c1", "note": "(single isomer, unassigned) [Example 79, 3-cyclobutyl-7-[(5-methoxypyridin-3-yl)sulfonyl]-1,2,3,3a,4,9b-hexahydrochromeno[3,4-b]pyrrole]", "pKi": "< 6.00"}, {"compound": "O=S(=O)(c1ccccc1)c1ccc2c(c1)OCC1C2CCN1CCCO", "note": "(single isomer, unassigned) [Example 100, 3-[7-(phenylsulfonyl)-1,3a,4,9b-tetrahydrochromeno[3,4-b]pyrrol-3(2H)-yl]propan-1-ol]", "pKi": "> 6.30"}, {"compound": "O=S(=O)(c1ccccc1)c1ccc2c(c1)OCC1C2CCN1CCO", "note": "(single isomer, unassigned) [Example 97, 2-[7-(phenylsulfonyl)-1,3a,4,9b-tetrahydrochromeno[3,4-b]pyrrol-3(2H)-yl]ethanol]", "pKi": "> 6.30"}, {"compound": "O=S(=O)(c1cc(F)cc(Cl)c1)c1ccc2c(c1)OCC1NCCC21", "note": "(single isomer, unassigned) [Example 15, 7-[(3-chloro-5-fluorophenyl)sulfonyl]-1,2,3,3a,4,9b-hexahydrochromeno[3,4-b]pyrrole]", "pKi": "> 6.30"}, {"compound": "CC(C)CCCN1CCC2c3ccc(S(=O)(=O)c4ccccc4)cc3OCC21", "note": "(single isomer, unassigned) [Example 101, 3-(4-methylpentyl)-7-(phenylsulfonyl)-1,2,3,3a,4,9b-hexahydrochromeno[3,4-b]pyrrole]", "pKi": "< 6.00"}, {"compound": "O=S(=O)(c1ccccc1)c1ccc2c(c1)OCC1C2CCN1Cc1ccccc1", "note": "(single isomer, unassigned) [Example 102, 3-benzyl-7-(phenylsulfonyl)-1,2,3,3a,4,9b-hexahydrochromeno[3,4-b]pyrrole]", "pKi": "< 6.00"}, {"compound": "O=S(=O)(c1ccc2c(c1)OCC1NCCC21)c1cccc2c1CCO2", "note": "(single isomer, unassigned) [Example 45, 7-(2,3-dihydro-1-benzofuran-4-ylsulfonyl)-1,2,3,3a,4,9b-hexahydrochromeno[3,4-b]pyrrole]", "pKi": "> 6.30"}, {"compound": "O=S(=O)(c1cncc(Cl)c1)c1ccc2c(c1)OCC1C2CCN1C1CCC1", "note": "(single isomer, unassigned) [Example 81, 7-[(5-chloropyridin-3-yl)sulfonyl]-3-cyclobutyl-1,2,3,3a,4,9b-hexahydrochromeno[3,4-b]pyrrole]", "pKi": "< 6.00"}, {"compound": "[O-][S+](c1ccccc1)c1ccc2c(c1)OCC1NCCC21", "note": "(racemic) [Example 26, 7-(Phenylsulfinyl)-1,2,3,3a,4,9b-hexahydrochromeno[3,4-b]pyrrole]", "pKi": "< 6.00"}, {"compound": "O=S(=O)(c1cccc(Cl)c1)c1ccc2c(c1)OCC1NCCC21", "note": "(single isomer, unassigned) [Example 11, 7-[(3-chlorophenyl)sulfonyl]-1,2,3,3a,4,9b-hexahydrochromeno[3,4-b]pyrrole]", "pKi": "> 6.30"}, {"compound": "O=S(=O)(c1cncc(C(F)(F)F)c1)c1ccc2c(c1)OCC1C2CCN1C1CCC1", "note": "(single isomer, unassigned) [Example 86, 3-cyclobutyl-7-{[5-(trifluoromethyl)pyridin-3-yl]sulfonyl}-1,2,3,3a,4,9b-hexahydrochromeno[3,4-b]pyrrole]", "pKi": "< 6.00"}, {"compound": "O=S(=O)(c1ccc2c(c1)OCC1NCCC21)c1cccc2c1CCO2", "note": "(single isomer, unassigned) [Example 37, 7-(2,3-dihydro-1-benzofuran-4-ylsulfonyl)-1,2,3,3a,4,9b-hexahydrochromeno[3,4-b]pyrrole]", "pKi": "> 6.30"}, {"compound": "O=S(=O)(c1ccccc1)c1ccc2c(c1)OCC1C2CCN1CCc1ccccc1", "note": "(single isomer, unassigned) [Example 103, 3-(2-phenylethyl)-7-(phenylsulfonyl)-1,2,3,3a,4,9b-hexahydrochromeno[3,4-b]pyrrole]", "pKi": "< 6.00"}, {"compound": "O=S(=O)(c1ccccc1)c1ccc2c(c1)OCC1C2CCN1C1CCOC1", "note": "(single isomer, unassigned) [Example 66, 7-(phenylsulfonyl)-3-(tetrahydrofuran-3-yl)-1,2,3,3a,4,9b-hexahydrochromeno[3,4-b]pyrrole]", "pKi": "< 6.00"}, {"compound": "O=S(=O)(c1cccc(Cl)c1)c1ccc2c(c1)OCC1NCCC21", "note": "(single isomer, unassigned) [Example 2, 7-[(3-chlorophenyl)sulfonyl]-1,2,3,3a,4,9b-hexahydrochromeno[3,4-b]pyrrole]", "pKi": "> 6.30"}, {"compound": "COc1cc(F)cc(S(=O)(=O)c2ccc3c(c2)OCC2NCCC32)c1", "note": "(single isomer, unassigned) [Example 36, 7-[(3-fluoro-5-methoxyphenyl)sulfonyl]-1,2,3,3a,4,9b-hexahydrochromeno[3,4-b]pyrrole]", "pKi": "> 6.30"}, {"compound": "O=S(=O)(c1cncc(Cl)c1)c1ccc2c(c1)OCC1C2CCN1C1CCC1", "note": "(single isomer, unassigned) [Example 76, 7-[(5-chloropyridin-3-yl)sulfonyl]-3-cyclobutyl-1,2,3,3a,4,9b-hexahydrochromeno[3,4-b]pyrrole]", "pKi": "> 6.30"}]}, {"target": "T1, human 5-HT6 receptor", "assay": "Human 5-HT6 Receptor Binding Assay ([3H]LSD, scintillation beads)", "details": "read-out: Human 5-HT6 Ki app; membranes of CHO-K1 cells with recombinant human 5-HT6 receptor, 4 nM [3H]LSD, Cheng-Prusoff", "method_in_brief": "as §1", "values": [{"compound": "O=S(=O)(c1cncc(Cl)c1)c1ccc2c(c1)OCC1NCCC21", "note": "(single isomer, unassigned) [Example 34, 7-[(5-chloropyridin-3-yl)sulfonyl]-1,2,3,3a,4,9b-hexahydrochromeno[3,4-b]pyrrole]", "pKi": "> 6.30"}]}, {"system": "rats", "assay": "not given", "details": "compared to an untreated control group; cited from earlier work", "values": [{"compound": "CN1CCN(c2cccc3c(S(=O)(=O)c4ccccc4)c[nH]c23)CC1", "note": "[RO 4368554]", "non-REM (NREM) sleep": "increase"}]}, {"system": "rats", "assay": "not given", "details": "rat model of tonic, persistent pain; cited from earlier work", "values": [{"compound": "COc1ccc(NS(=O)(=O)c2sc3ccc(Cl)cc3c2C)cc1N1CCNCC1", "note": "[SB-271046]", "antinociceptive effect": "short-lived, antinociceptive effect"}]}]}
